Measurements taken from US20250179047A1, “5-[7-(3,4-DIHYDRO-1H-ISOQUINOLINE-2-CARBONYL)-1,2,3,4 TETRAHYDROISOQUINOLIN-6-YL]-1H-PYRROLE-3-CARBOXAMIDE DERIVATIVES, PHARMACEUTICAL COMPOSITIONS CONTAINING THEM AND THEIR USES AS PRO-APOPTOTIC AGENTS” (LES LABORATOIRES SERVIER, priority 2022, published 2025).

Assays:
BCL2 WT = BCL2 WT (Homo sapiens (Human), UniProt P10415); assay: TR-FRET competitive binding assay, BCL2 WT; conditions: Ki determined from IC50, read-out: TR_FRET EKI_Bcl2 WT
Summary of the method: (§1)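 Terbium-labelled N-terminal Halo-fusion BCL2 or BCLXL (E. coli), 0.5 nM, competed against fluorescein-labelled PUMA peptide (2 or 20 nM) for 2 h at 23° C in 50 mM Hepes pH 7.5, 150 mM NaCl, 5% DMSO. TR-FRET 520/495 nm ratio gave IC50 by four-parameter fit; Ki derived from IC50.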

BCL2 G101V [1] = target: BCL2 G101V (Homo sapiens, UniProt P10415, G101V); assay: TR-FRET competitive binding assay, BCL2 G101V; conditions: BCL2 G101V; Ki determined from IC50; read-out: TR_FRET EKI_Bcl2 G101V
Summary of the method: as §1

BCL2 G101V [2] = assay: TR-FRET competitive binding assay, BCL2 G101V; set-up: species or system human; conditions: ratio Ki BCL2 G101V / Ki BCL2 WT
Summary of the method: as §1

BCL2 D103Y = BCL2 D103Y (Homo sapiens, UniProt P10415, D103Y); assay: TR-FRET competitive binding assay, BCL2 D103Y; conditions: Ki determined from IC50, read-out: TR_FRET EKI_Bcl2 D103Y
Summary of the method: as §1

BCLXL WT = BCLXL WT (Homo sapiens (Human), UniProt Q07817); assay: TR-FRET competitive binding assay, BCLXL WT; conditions: for Ki: BCLXL WT, Ki determined from IC50, read-out: TR_FRET EKI BclxL; for TR_FRET EKI BCLxL/WT selectivty ratio: ratio Ki BCLxL / Ki BCL2 WT
Sequence of BCLXL WT (Q07817 other isoform, or with tags, fused parts or gaps): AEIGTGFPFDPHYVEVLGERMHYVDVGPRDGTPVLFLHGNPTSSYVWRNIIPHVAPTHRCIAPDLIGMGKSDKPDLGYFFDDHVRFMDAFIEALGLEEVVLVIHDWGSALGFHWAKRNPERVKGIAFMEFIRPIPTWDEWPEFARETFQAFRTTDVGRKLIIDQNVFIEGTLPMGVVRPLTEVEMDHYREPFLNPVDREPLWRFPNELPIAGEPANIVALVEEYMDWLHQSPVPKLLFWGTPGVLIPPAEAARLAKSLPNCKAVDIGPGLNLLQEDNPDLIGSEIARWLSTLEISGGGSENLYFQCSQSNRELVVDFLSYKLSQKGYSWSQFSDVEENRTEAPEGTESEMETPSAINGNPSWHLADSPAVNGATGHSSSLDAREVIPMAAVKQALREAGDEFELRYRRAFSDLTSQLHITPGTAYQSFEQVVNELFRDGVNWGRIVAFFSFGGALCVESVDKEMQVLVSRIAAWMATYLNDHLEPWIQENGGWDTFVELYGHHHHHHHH
Summary of the method: as §1

KMS-12-PE Bcl-2 WT = assay: In vitro cytotoxicity CellTiter-Glo 48 h, KMS-12-PE Bcl-2 WT; assay type: cell-based; conditions: C50 = concentration needed to reach 50% of the cellular viability
Summary of the method: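 Viability measured by CellTiter-Glo luminescence after 48 h compound exposure (11-point curve, 37 °C, 5% CO2). Cells: KMS-12-PE transduced with wild-type or G101V-mutant Bcl-2, FACS-sorted for TagRFP. Reported C50 = concentration reaching 50% cellular viability.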

KMS-12-PE Bcl-2 G101V = assay: In vitro cytotoxicity CellTiter-Glo 48 h, KMS-12-PE Bcl-2 G101V; assay type: cell-based; conditions: for Ratio (G101V/WT): C50 KMS-12-PE Bcl-2 G101V over C50 KMS-12-PE Bcl-2 WT; for IC50: 48 h, CellTiter-Glo, C50 = concentration needed to reach 50% of the cellular viability
Protocol: KMS-12-PE (ACC 606) were purchased from the Leibniz-Institute DSMZ (Braunschweig, Germany) and were grown at 37° C. in a humidified atmosphere with […] in media recommended by the suppliers. Lentiviral particles containing Bcl-2 wild type (also named “Bcl2 WT”) and Bcl-2 mutated on G101V (also named “Bcl2 G101V”) were cloned into pcLV-CMV-DEST-IRES-TagRFP. Lentiviral particles (1×106) were mixed with Polybrene at 8 µg/ml and transduced by spinoculation for 1 h at 32° C. and incubated overnight. After 8 days, TagRFP positive-cells were sorted by FACS. BCL2 expression was monitored by immunoblotting using anti-Flag and anti-BCL2 antibodies.
Cellular viability was monitored with the cell viability assay (CellTiter-Glo®) on KMS-12-PE WT and G101V cell lines. The CellTiter-Glo® (CTG) Luminescent Cell Viability Assay (from Promega) is a homogeneous method to determine the number of viable cells in culture based on quantitation of the ATP present, which signals the presence of metabolically active cells.
Dose response of compounds are performed with 10 mM stock solutions (DMSO), 11-points curve, in a 384-well compound plate. The assay plate is prepared by stamping 40 nL from compound dilution plate of all different concentrations (e.g. 10 mM to have final […] assay test) into a cell culture microplate, using Echo acoustic liquid handling (Labcyte, Beckman). 40 μl of cell solution is added and cells are incubated with compounds for 48 h at 37° C., 5% CO2. CTG was added to the cells (according to the manufacturer instructions) and luminescence intensity was recorded using the Pherastar plate reader (BMG).
This assay provides in vitro cellular potency of the tested Bcl-2 inhibitors, measuring the C50, defined as the concentration needed to reach 50% of the cellular viability.

Row | Structure (SMILES) | Ki (BCL2 WT) | Ki (BCL2 G101V [1]) | TR_FRET EKI G101V/WT selectivty ratio (BCL2 G101V [2]) | Ki (BCL2 D103Y) | Ki (BCLXL WT) | TR_FRET EKI BCLxL/WT selectivty ratio (BCLXL WT) | IC50 (KMS-12-PE Bcl-2 WT; Homo sapiens, KMS-12-PE) | Ratio (G101V/WT) (KMS-12-PE Bcl-2 G101V) | IC50 (KMS-12-PE Bcl-2 G101V; Homo sapiens, KMS-12-PE) | IC50 (KMS-12-PE Bcl-2 WT) | IC50 (KMS-12-PE Bcl-2 G101V)
1 | Cc1c(N(C(=O)c2cc(-c3cc4c(cc3C(=O)N3Cc5ccccc5C[C@H]3C)CN(C(=O)Cc3ccc(OCCN5CCOC(C)C5)cc3F)CC4)n(C)c2C)c2ccc(O)cc2)cc(C#N)n1C (single isomer, unassigned) [Example 75, N-(5-cyano-1,2-dimethyl-1H-pyrrol-3-yl)-5-[2-(2-{2-fluoro-4-[2-((2S or R)-2-methylmorpholin-4-yl)ethoxy]phenyl}acetyl)-7-[(3R)-3-methyl-1,2,3,4-tetrahydroisoquinoline-2-carbonyl]-1,2,3,4-tetrahydroisoquinolin-6-yl]-N-(4-hydroxyphenyl)-1,2-dimethyl-1H-pyrrole-3-carboxamide] | 0.13 nM | 0.5 nM | 3.7 | 0.28 nM | 1.4 nM | 10.8 | 0.0037 µM | 3.93 | 0.0147 µM |  | 
2 | Cc1c(C(=O)N(c2ccc(O)cc2)c2cc(C#N)n(CC3CCOC3)c2C)cc(-c2cc3c(cc2C(=O)N2Cc4ccccc4C[C@H]2C)CN(C(=O)Cc2ccc(OCCN4CCOCC4)cc2F)CC3)n1C (single isomer, unassigned) [Example 84, N-[5-cyano-2-methyl-1-((3S or R)-tetrahydrofuran-3-ylmethyl)pyrrol-3-yl]-5-[2-[2-[2-fluoro-4-(2-morpholinoethoxy)phenyl]acetyl]-7-[(3R)-3-methyl-3,4-dihydro-1H-isoquinoline-2-carbonyl]-3,4-dihydro-1H-isoquinolin-6-yl]-N-(4-hydroxyphenyl)-1,2-dimethyl-pyrrole-3-carboxamide] | 0.16 nM | 1 nM | 5.9 | 0.43 nM | 1.8 nM | 11.3 | 0.0073 µM | 4.83 | 0.0353 µM |  | 
3 | Cc1c(C(=O)N(c2ccc(O)cc2)c2cc(C#N)n(C(F)F)c2C)cc(-c2cc3c(cc2C(=O)N2Cc4ccccc4C[C@H]2CN2CCCCC2)CN(C(=O)Cc2ccc(OCCN4CCOC(C)C4)cc2F)CC3)n1C (single isomer, unassigned) [Example 162, N-[5-cyano-1-(difluoromethyl)-2-methyl-pyrrol-3-yl]-5-[2-[2-[2-fluoro-4-[2-((2R or S)-2-methylmorpholin-4-yl)ethoxy]phenyl]acetyl]-7-[(3S)-3-(1-piperidylmethyl)-3,4-dihydro-1H-isoquinoline-2-carbonyl]-3,4-dihydro-1H-isoquinolin-6-yl]-N-(4-hydroxyphenyl)-1,2-dimethyl-pyrrole-3-carboxamide] | 0.13 nM | 0.6 nM | 4.8 | 0.3 nM | 9.2 nM | 70.8 | 0.0063 µM | 5.0958 | 0.0319 µM |  | 
4 | Cc1c(N(C(=O)c2cc(-c3cc4c(cc3C(=O)N3Cc5ccccc5C[C@H]3CN3CCCCC3)CN(C(=O)Cc3ccc(OCCC5COCCO5)cc3F)CC4)n(C)c2C)c2ccc(O)cc2)cc(C#N)n1C (single isomer, unassigned) [Example 174, N-(5-cyano-1,2-dimethyl-pyrrol-3-yl)-5-[2-[2-[4-[2-((2S or R)-1,4-dioxan-2-yl)ethoxy]-2-fluoro-phenyl]acetyl]-7-[(3S)-3-(1-piperidylmethyl)-3,4-dihydro-1H-isoquinoline-2-carbonyl]-3,4-dihydro-1H-isoquinolin-6-yl]-N-(4-hydroxyphenyl)-1,2-dimethyl-pyrrole-3-carboxamide] | 0.07 nM | 0.5 nM | 7.8 | 0.3 nM | 2.6 nM | 38.8 | 0.0044 µM | 5.6751 | 0.0248 µM |  | 
5 | Cc1c(N(C(=O)c2cc(-c3cc4c(cc3C(=O)N3Cc5ccccc5C[C@H]3CN3CCCCC3)CN(C(=O)Cc3ccc(OCCC5COCCO5)cc3F)CC4)n(C)c2C)c2ccc(O)cc2)cc(C#N)n1C (single isomer, unassigned) [Example 175, N-(5-cyano-1,2-dimethyl-pyrrol-3-yl)-5-[2-[2-[4-[2-((2R or S)-1,4-dioxan-2-yl)ethoxy]-2-fluoro-phenyl]acetyl]-7-[(3S)-3-(1-piperidylmethyl)-3,4-dihydro-1H-isoquinoline-2-carbonyl]-3,4-dihydro-1H-isoquinolin-6-yl]-N-(4-hydroxyphenyl)-1,2-dimethyl-pyrrole-3-carboxamide] | 0.08 nM | 0.5 nM | 7.0 | 0.34 nM | 3.1 nM | 40.8 |  | 6.335 |  | 0.0041 µM | 0.0261 µM

These reach a lower Ki (BCL2 WT). Values come first.

Row | Ki (BCL2 WT) | Ki (BCL2 G101V [1]) | TR_FRET EKI G101V/WT selectivty ratio (BCL2 G101V [2]) | Ki (BCL2 D103Y) | Ki (BCLXL WT) | TR_FRET EKI BCLxL/WT selectivty ratio (BCLXL WT) | Structure (SMILES) | IC50 (KMS-12-PE Bcl-2 WT; Homo sapiens, KMS-12-PE) | Ratio (G101V/WT) (KMS-12-PE Bcl-2 G101V) | IC50 (KMS-12-PE Bcl-2 G101V; Homo sapiens, KMS-12-PE) | IC50 (KMS-12-PE Bcl-2 WT) | IC50 (KMS-12-PE Bcl-2 G101V)
6 | 0.06 nM | 0.4 nM | 6.9 | 0.21 nM | 5.4 nM | 93.1 | Cc1c(N(C(=O)c2cc(-c3cc4c(cc3C(=O)N3Cc5ccccc5C[C@H]3CN3CCCCC3)CN(C(=O)Cc3ccc(OCC(C)N5CCOCC5)cc3)CC4)n(C)c2C)c2ccc(O)cc2)cc(C#N)n1C (single isomer, unassigned) [Example 128, N-(5-cyano-1,2-dimethyl-1H-pyrrol-3-yl)-N-(4-hydroxyphenyl)-1,2-dimethyl-5-[2-(2-{4-[(2R or S)-2-(morpholin-4-yl)propoxy]phenyl}acetyl)-7-[(3S)-3-[(piperidin-1-yl)methyl]-1,2,3,4-tetrahydroisoquinoline-2-carbonyl]-1,2,3,4-tetrahydroisoquinolin-6-yl]-1H-pyrrole-3-carboxamide] |  | 5.95 |  | 0.0103 µM | 0.0613 µM
7 | 0.06 nM | 0.3 nM | 4.7 | 0.2 nM | 1.1 nM | 17.7 | Cc1c(N(C(=O)c2cc(-c3cc4c(cc3C(=O)N3Cc5ccccc5C[C@H]3CN3CCCCC3)CN(C(=O)Cc3ccc(OCC(C)N5CCOCC5)cc3F)CC4)n(C)c2C)c2ccc(O)cc2)cc(C#N)n1C (single isomer, unassigned) [Example 141, N-(5-cyano-1,2-dimethyl-1H-pyrrol-3-yl)-5-[2-(2-{2-fluoro-4-[(2R or S)-2-(morpholin-4-yl)propoxy]phenyl}acetyl)-7-[(3S)-3-[(piperidin-1-yl)methyl]-1,2,3,4-tetrahydroisoquinoline-2-carbonyl]-1,2,3,4-tetrahydroisoquinolin-6-yl]-N-(4-hydroxyphenyl)-1,2-dimethyl-1H-pyrrole-3-carboxamide] |  | 2.2379 |  | 0.0085 µM | 0.019 µM
